# Source: patent publication US20260327195A1, “2-STYRYLBENZOTHIAZOLE DERIVATIVES AS ALPHA-SYNUCLEIN BINDING COMPOUNDS” (Eberhard Karls Universität Tübingen Medizinische Fakultät, priority 2023, published 2026)
# Experiments:
# Aβ fibrils = details: result in words; cited from earlier work
# αSYN = details: result in words; cited from earlier work
# [1] = biological target: T1, Aβ plaques in AD human brain slices (Homo sapiens, UniProt P05067); assay: In vitro autoradiography on AD human brain slices (frontal cortex); type: binding
# T1 construct: mainly Abeta40/42 cut from APP) in post-mortem AD frontal cortex slices
# T1 sequence (P05067 672-713 limits assumed): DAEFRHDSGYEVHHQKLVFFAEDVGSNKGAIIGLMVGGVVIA
# Method: (§1) Post-mortem human brain slices (10 μm thickness) were obtained from and the subject cases were analyzed by the Neurobiobank München (NBM, Munich, Germany), where tissues were collected on the basis of written informed consent according to the guidelines of the ethics committee of the Ludwig-Maximilians-University Munich, Germany (#345-13). The use of brain tissue samples in this study was approved by the ethics committee of the Faculty of Medicine at the University of Tuebingen (Ethics approval number: 813/2018BO2). Table 1 summarizes the information of the subjects from which samples were obtained and used in the experiment.
# (§2) For autoradiography, brain slices were thawed for one hour before pre-incubation in BSA buffer for 25 minutes at room temperature. To determine total binding (TB), brain slices were incubated with the tracer (10 nM [^18F]PFSB, 10 nM [^18F]MFSB). Incubation of consecutive slices with the correspondent non-radioactive compounds (10 μM PFSB, […]) was performed to determine non-specific binding (NSB). The non-radioactive compounds were prepared by dissolving in DMSO to 10 mM, which yielded DMSO concentration of ≤0.1% in the final solution. Incubation was carried out for one hour at room temperature with subsequent washing in cold BSA buffer (three times for ten minutes) followed by three dipping in cold deionized water. After drying under UV lamps, brain slices were exposed to a storage phosphor screen (Molecular Dynamics, Caesarea, Israel) for 18 hours, which was then scanned in a phosphor imager (STORM 840, Molecular dynamics, Sunnyvale, CA, USA).
# (§3) Quantitative data analysis was performed by drawing four regions of interest (ROIs) in relevant areas of the slice and one ROI next to it for background subtraction (ImageJ 1.8.0_172, National Institute of Health, Bethesda, Maryland, USA) (Schneider, C. A. et al., NIH Image to ImageJ: 25 years of image analysis; Nat Methods 2012, 9 (7), 671-5). Specific binding (SB) is obtained by subtracting NSB from TB. The SB disease/SB control ratio was calculated by dividing by the SB in diseased tissues with the respective SB in control tissues.
# [2] = In vivo dynamic PET/MR imaging, pharmacokinetic profile; design: species or system mouse (wild-type female C57BL/6J); details: i.v.
# Method: The animal experiments were performed in compliance to the European directives on the protection and use of laboratory animals (Council Directive 2010/63/UE) and the German animal welfare act with approval from the local authorities (Regierungspräsidium Tuebingen, R3/19G). Three healthy wild-type female C57BL/6J mice (20.3±0.9 g; 9 weeks old) purchased from Charles River Laboratories (Sulzbach, Germany) were maintained in a vivarium on a 12:12 hour light dark cycle and were kept at a temperature of 22° C. with 40-60% humidity and free access to a standard diet and tap water.
# The mice (n=3) were anaesthetized with 1.5% isoflurane evaporated in 100% oxygen at a flow rate of 0.8 L/min. Body temperature of 37° C. was maintained using a feedback temperature control unit. PET imaging studies were performed on Inveon dedicated microPET system (Inveon D-PET, Siemens, Knoxville, TN, USA). Five seconds after the start of PET acquisition, mice were injected intravenously with 9.9±0.6 MBq of [^18F]MFSB (Am=46.2±2.5 GBq/μmol at time of injection). The one-hour dynamic acquisitions were divided into 39 time frames (12×5 s, 6×10 s, 6×30 s, 5×60 s and 10×300 s). A 13-minute transmission measurement with a cobalt-57 point source was performed for attenuation correction. Subsequently, an anatomical magnetic resonance (MR) scan with a 7 Tesla MR scanner (ClinScan, Bruker BioSpin MRI GmbH, Ettlingen, Germany) using a rat whole-body volume coil and the Paravision software (v6.0.1, Bruker, Ettlingen, Germany) using a T2-weighted Turbo-RARE MRI sequence.
# The PET image was reconstructed via the OSEM3D/SP-MAP reconstruction algorithm and coregistered to the whole-body MRI scan. Volumes of interest (VOIs) were hand-drawn for the relevant organs based on the MR anatomy in PMOD (PMOD Technologies, Faellanden, Switzerland, Version 4.2) and VOIs at different regions in the mouse brain were extracted using the atlas provided by PMOD to calculate the respective time-activity curves (TACs). Standardized uptake values (SUVs) were calculated as a ratio of the detected activity with injected activity and weight (SUV=(TAC (kBq/cc)/inj. activity (kBq))*weight (g)).
# [3] = biological target: αSYN pathology in PD human brain slices (Homo sapiens, UniProt P37840); assay: In vitro autoradiography on PD human brain slices (frontal cortex); type: binding; details: 10 nM tracer; NSB with 10 μM non-radioactive compound
# Method: as §1
# For autoradiography, brain slices were thawed for one hour before pre-incubation in BSA buffer for 25 minutes at room temperature. To determine total binding (TB), brain slices were incubated with the tracer (10 nM [^18F]PFSB, 10 nM [^18F]MFSB). […]
# as §3, with “Specific binding (SB) is obtained by subtracting NSB from TB.” left out
# [4] = biological target: αSYN pathology in MSA human brain slices (Homo sapiens, UniProt P37840); assay: In vitro autoradiography on MSA human brain slices (cerebellum); type: binding
# Method: as §1, §2, §3
# [5] = 10 nM tracer, NSB with 10 μM non-radioactive compound
Structure (SMILES),binding to Aβ fibrils (Aβ fibrils),binding to αSYN (αSYN),"SB disease/SB control, AD/frontal cortex ctrl [1, 5]","binding in AD brain regions with Aβ plaques / AD/frontal cortex SB ratio in words ([1]; result in words, FIG. 12)","crossing of the BBB ([2]; 9.9±0.6 MBq, 60 min dynamic PET/MR)","clearance from lungs and liver ([2]; after first 2 min, result in words)",uptake in liver (SUV) ([2]; first 2 min),uptake in lungs (SUV) ([2]; first 2 min),"clearance (brain), over 60 min ([2]; result in words)",kidney uptake ([2]; result in words),"renal excretion, start ([2]; result in words)","SB disease/SB control, PD/frontal cortex ctrl [3]","SB disease/SB control, MSA2/cerebellum ctrl [4, 5]","selectivity towards αSYN over Aβ ([4]; autoradiography, result in words, FIG. 12)","non-specific binding on MSA sections ([4]; result in words, hampered quantification of the disease/control SB ratio)"
Cc1ccc2c(c1)sc(-c1ccc(N(C)C)cc1)[n+]2C [thioflavin T],known to bind to Aβ fibrils,does not bind to αSYN,,,,,,,,,,,,,
[18F]c1ccc2nc(/C=C/c3ccc(N4CCOCC4)cc3)sc2c1 [[^18F]MFSB],,,1.03,remained favorable,crossing of the BBB was successful,fast to moderate clearance,≈ 5 SUV,≈ 5 SUV,beginning of clearance was observed,Significant kidney uptake,renal excretion starting in the first few minutes,1.18,1.27,validated the selective binding to αSYN,with [^18F]MFSB was hampered by high NSB.
